melting point	Compound
243.1 to 244.3 °C	Cc1nc2ccc(C=CC(=O)NS(=O)(=O)c3ccccc3)cc2n1Cc1ccccc1Cl [Example 126, N-Benzenesulfonyl-3-[1-(2-Chlorobenzyl)-2-Methylbenzimidazole-6-yl]Acrylamide]
224 to 229 °C	O=C(O)c1ccc2nc(C3CC3)n(Cc3ccccc3F)c2c1 [Example 18, 6-Carboxy-2-Cyclopropyl-1-(2-Fluorobenzyl)Benzimidazole]
273.5 to 274.3 °C	Cc1nc2ccc(C(=O)NS(=O)(=O)c3ccccc3)cc2n1Cc1ccccc1Cl [Example 111, 6-Benzenesulfonylcarbamoyl-1-(2-Chlorobenzyl)-2-Methylbenzimidazole]
271 to 274 °C	COc1ccc(S(=O)(=O)NC(=O)c2ccc3nc(C)n(Cc4ccccc4Cl)c3c2)cc1 [Example 162, 1-(2-Chlorobenzyl)-6-(4-Methoxybenzenesulfonylcarbamoyl)-2-Methylbenzimidazole]
332 to 335 °C (dec.)	Cc1nc2ccc(C(=O)NS(=O)(=O)C(F)(F)F)cc2n1Cc1ccccc1Cl.Cl
193 to 196 °C	Cc1nc2ccc(C(=O)NS(=O)(=O)Cc3ccccc3)cc2n1Cc1ccccc1Cl [Example 163, 1-(2-Chlorobenzyl)-2-Methyl-6-(α-Toluenesulfonylcarbamoyl)Benzimidazole]
288 to 292 °C	Cc1nc2ccc(C(=O)NS(=O)(=O)c3ccc(C(F)(F)F)cc3)cc2n1Cc1ccccc1Cl [Example 166, 1-(2-Chlorobenzyl)-2-Methyl-6-[4(Trifluoromethyl)Benzenesulfonylcarbamoyl]Benzimidazole]
206 to 209 °C	O=C(Nc1ccccn1)c1ccc2nc(C3CC3)n(Cc3ccccc3Cl)c2c1 [Example 28, 1-(2-Chlorobenzyl)-2-Cyclopropyl-6-(2-Pyridylcarbamoyl)Benzimidazole]
330 to 332 °C	Cc1nc2ccc(C(=O)NS(=O)(=O)c3ccc([N+](=O)[O-])cc3)cc2n1Cc1ccccc1Cl [Example 165, 1-(2-Chlorobenzyl)-2-Methyl-6-(4-Nitrobenzenesulfonylcarbamoyl)Benzimidazole]
352.5 to 355 °C	Nc1nc2ccc(C(=O)NS(=O)(=O)c3ccccc3)cc2n1Cc1ccc(-c2ccccc2)cc1 [Example 172, 2-Amino-6-Benzenesulfonylcarbamoyl-1-(Biphenyl-4-ylmethyl)Benzimidazole]
97 to 100 °C	CCCCc1nc2ccc(C(=O)N(C)Cc3ccccn3)cc2n1Cc1ccccc1F [Example 40, 2-n-Butyl-1-(2-Fluorobenzyl)-6-[N-Methyl-N-(2-Pyridylmethyl)Carbamoyl]Benzimidazole]
264 to 267 °C	Cc1nc2ccc(C(=O)NS(=O)(=O)c3ccccc3Cl)cc2n1Cc1ccccc1Cl.N [Example 167, 6-(2-Chlorobenzenesulfonylcarbamoyl)-1-(2-Chlorobenzyl)-2-Methylbenzimidazole Ammonium Salt]
143 to 146 °C	CCCc1nc2ccc(C(=O)N(C)c3ccccn3)cc2n1Cc1ccccc1Cl [Example 37, 1-(2-Chlorobenzyl)-6-[N-Methyl-N-(2-Pyridyl)carbamoyl]-2-n-Propylbenzimidazole]
266.5 to 267.5 °C	Cc1ccc(C)c(S(=O)(=O)NC(=O)c2ccc3nc(C)n(Cc4ccccc4Cl)c3c2)c1 [Example 164, 1-(2-Chlorobenzyl)-6-(2,5-Dimethylbenzenesulfonylcarbamoyl)-2-Methylbenzimidazole]
254.5 to 257.5 °C (dec.)	Cc1nc2ccc(C(=O)NS(=O)(=O)c3cccc(Cl)c3)cc2n1Cc1ccccc1Cl [Example 156, 6-(3-Chlorobenzenesulfonylcarbamoyl)-1-(2-Chlorobenzyl)-2-Methylbenzimidazole]
111 to 112.4 °C	CCCCS(=O)(=O)NC(=O)c1ccc2nc(C)n(Cc3ccc(C(=O)c4ccccc4)cc3)c2c1 [Example 300, 1-[(4-Benzoyl)benzyl]-6-(1-Butanesulfonylcarbamoyl)-2-Methylbenzimidazole]
229.8 to 233 °C	Cc1nc2ccc(CCC(=O)NS(=O)(=O)c3ccccc3)cc2n1Cc1ccccc1Cl [Example 200, N-Benzenesulfonyl-3-[1-(2-chlorobenzyl)-2-methylbenzimidazole-6-yl]propionamide]
